Results from patent US11472804B2, “Compositions and methods for modulating hair growth” (The Regents of the University of California, priority 2017, dated 2022).
“Also recorded” adds a separate entry of the source.

How the values were obtained:
hair cycle = assay: Topical treatment of mice in telogen with UK-5099, hair cycle; format: in vivo
Procedure: (§1) FIG. 7A: Animals treated topically with UK-5099 (20 μM) show pigmentation and hair growth, indicative of entry into anagen, after 8 days of treatment. Full anagen, indicated by full coat of hair, is achieved after 14 days of treatment. […] Images shown are representative of at least 14 mice from 7 independent experiments. Scale bars indicate 100 micrometers. FIG. 7B: Graph showing time to observed phenotype in vehicle versus UK-5099 treated mice. n=6 mice per condition. Shown as mean±SEM. […] Ldh activity is indicated by purple stain; pink is nuclear fast red counterstain. Scale bars indicate 50 micrometers. FIG. 7D: Metabolomic analysis of Lactate on HFSCs isolated from UK-5099 treated skin for 48 hours; Each bar represents the average signal for each condition where n=9 mice pooled from 3 independent experiments. Shown as mean±SEM. Paired t-test was performed, p<0.05.
(§2) Quantification of the hair cycle across at least 6 pairs of animals (vehicle vs UK-5099) indicated a strong acceleration of the hair cycle, in as few as 6-9 days (FIG. 7B).

Ldh = Ldh enzyme activity assay in the epidermis of topically treated animals; format: in vivo, mice; conditions: topical, 48 hours during telogen
Procedure: as §1
To determine whether Ldha expression patterns correlate with activity of the Ldh enzyme, a colorimetric-based enzymatic assay was used to assess Ldh activity capacity in situ. Typically performed on protein lysates or aliquots with a plate reader, the Ldh activity assay was adapted to work in situ on frozen tissue sections. […]
as §2

HFSCs = assay: Metabolomic analysis of lactate on HFSCs isolated from treated skin; format: in vivo, mice; conditions: topical application, treated skin for 48 hours
Procedure: as §1, §2

[1] = topical treatment of animals in telogen (day 50)

Question: With `N#C/C(=C\c1cn(-c2ccccc2)c2ccccc12)C(=O)O` [UK-5099, (E)-2-Cyano-3-(1-phenyl-1H-indol-3-yl)acrylic acid] as the molecule, how does the “acceleration of the hair cycle” value (hair cycle; [1]) read?
Answer: robust acceleration of the hair cycle

Question: And the “proliferation of the interfollicular epidermis” value (hair cycle; [1])?
Answer: minor hyperproliferation of the interfollicular epidermis

Question: What about the “skin pathology, hair cycle stage” value (hair cycle; topical, 20 μM, at 8 weeks) of the same molecule?
Answer: enter an accelerated anagen

Question: And the “full anagen, indicated by full coat of hair, time of treatment” value (hair cycle; topical, 20 μM, mice)?
Answer: 14 days

Question: And the “pigmentation and hair growth, indicative of entry into anagen, time of treatment” value (hair cycle; topical, 20 μM, mice)?
Answer: 8 days

Question: What about the “quantification of the hair cycle, time to acceleration” value (hair cycle; topical, at least 6 pairs of animals, vehicle vs UK-5099) of the same molecule?
Answer: 6 to 9 days

Question: And the “Ldh activity in HFSCs and interfollicular epidermis” value (Ldh)?
Answer: increased Ldh activity; also recorded: Ldh enzyme activity also seen in interfollicular epidermis

Question: And the “total levels of lactate in sorted HFSCs” value (HFSCs)?
Answer: increases total levels of lactate
